From the supplement of paper PMC10307832

Experiments:
Assay in all cases: relative viability (nuclei count vs DMSO), 5 days (fraction); higher = more cells survive
Dabrafenib + OSI-027 = compound: CC(C)(C)c1nc(-c2cccc(NS(=O)(=O)c3c(F)cccc3F)c2F)c(-c2ccnc(N)n2)s1 [Dabrafenib] + COc1cccc2cc(-c3nc([C@H]4CC[C@H](C(=O)O)CC4)n4ncnc(N)c34)[nH]c12 [OSI-027] (partner 0.5 µM)
Procedure, shortened: (§1)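 Lung cancer cell lines were pin-tool dosed in 1536-well plates on the day after seeding, with either a lone drug or a fixed anchor-drug dose plus five library-drug doses (not always all listed) in √10 steps. Nuclei were counted on 4× images after 5 days. Relative viability is the ratio of treated-well to vehicle-well nuclei counts, with each value a median of duplicate plates.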

VX-702 + Alpelisib = compound: NC(=O)c1ccc(N(C(N)=O)c2c(F)cccc2F)nc1-c1ccc(F)cc1F [VX-702] + Cc1nc(NC(=O)N2CCC[C@H]2C(N)=O)sc1-c1ccnc(C(C)(C)C(F)(F)F)c1 [Alpelisib] (partner 2 µM)
Procedure, shortened: as §1

Dabrafenib + Tozasertib = compound: CC(C)(C)c1nc(-c2cccc(NS(=O)(=O)c3c(F)cccc3F)c2F)c(-c2ccnc(N)n2)s1 [Dabrafenib] + Cc1cc(Nc2cc(N3CCN(C)CC3)nc(Sc3ccc(NC(=O)C4CC4)cc3)n2)n[nH]1 [Tozasertib] (partner 0.1 µM)
Procedure, shortened: as §1

Dabrafenib + AZD7762 = compound: CC(C)(C)c1nc(-c2cccc(NS(=O)(=O)c3c(F)cccc3F)c2F)c(-c2ccnc(N)n2)s1 [Dabrafenib] + NC(=O)Nc1cc(-c2cccc(F)c2)sc1C(=O)N[C@H]1CCCNC1 [AZD7762] (partner 0.2 µM)
Procedure, shortened: as §1

| Cell Line | relative viability (Dabrafenib + OSI-027; first compound 0.003 µM) | relative viability (Dabrafenib + OSI-027; first compound 0.009487 µM) | relative viability (Dabrafenib + OSI-027; first compound 0.03 µM) | relative viability (Dabrafenib + OSI-027; first compound 0.09487 µM) | relative viability (Dabrafenib + OSI-027; first compound 0.3 µM) | relative viability (VX-702 + Alpelisib; first compound 0.02 µM) | relative viability (VX-702 + Alpelisib; first compound 0.2 µM) | relative viability (VX-702 + Alpelisib; first compound 0.6325 µM) | relative viability (VX-702 + Alpelisib; first compound 2 µM) | relative viability (Dabrafenib + Tozasertib; first compound 0.003 µM) | relative viability (Dabrafenib + Tozasertib; first compound 0.009487 µM) | relative viability (Dabrafenib + Tozasertib; first compound 0.03 µM) | relative viability (Dabrafenib + Tozasertib; first compound 0.09487 µM) | relative viability (Dabrafenib + Tozasertib; first compound 0.3 µM) | relative viability (Dabrafenib + AZD7762; first compound 0.003 µM) | relative viability (Dabrafenib + AZD7762; first compound 0.009487 µM) | relative viability (Dabrafenib + AZD7762; first compound 0.03 µM) | relative viability (Dabrafenib + AZD7762; first compound 0.09487 µM) | relative viability (Dabrafenib + AZD7762; first compound 0.3 µM) |
| --- | --- | --- | --- | --- | --- | --- | --- | --- | --- | --- | --- | --- | --- | --- | --- | --- | --- | --- | --- |
| HCC-44 | 0.45 | 0.614 | 0.511 | 0.478 | 0.591 | 0.861 | 0.866 | 0.588 | 0.8 | 0.959 | 0.974 | 0.976 | 0.836 | 0.989 | 0.966 | 1.02 | 1.12 | 1.06 | 1 |
| HCC-78 |  | 0.36 | 0.334 | 0.354 | 0.38 | 0.303 | 0.33 | 0.287 | 0.32 |  | 0.485 | 0.42 | 0.387 | 0.54 |  | 0.683 | 0.466 | 0.563 | 0.872 |
| HCC-366 | 0.109 | 0.988 | 0.501 | 0.773 | 1.08 | 0.37 | 0.369 | 0.296 | 0.463 | 0.088 | 0.187 | 0.0643 | 0.104 | 0.0995 | 0.0302 | 0.288 | 0.29 | 0.309 | 0.16 |
| IA-LM |  |  |  |  |  | 0.718 | 0.725 | 0.782 | 0.748 |  |  |  |  |  |  |  |  |  |  |
| NCI-H520 | 0.272 | 0.348 | 0.188 | 0.324 | 0.278 | 0.919 | 0.788 | 0.796 | 1.06 | 0.431 | 0.486 |  | 0.417 | 0.408 |  |  |  |  |  |
| NCI-H522 |  | 0.761 | 0.642 | 0.714 | 0.757 |  |  |  |  |  | 0.471 | 0.59 | 0.58 | 0.621 |  | 0.936 | 0.717 | 0.88 | 0.841 |
| NCI-H661 | 0.785 | 0.709 | 0.676 | 0.682 | 0.675 | 0.536 | 0.364 | 0.338 | 0.997 | 0.344 | 0.364 | 0.372 | 0.38 | 0.352 |  |  |  |  |  |
| NCI-H1299 |  |  |  |  |  | 1.14 | 1.1 | 1.21 | 1.15 |  |  |  |  |  |  |  |  |  |  |
| NCI-H1563 | 0.732 | 0.742 | 0.675 | 0.791 | 0.676 | 0.905 | 0.997 | 0.835 | 0.876 |  |  |  |  |  |  |  |  |  |  |
| NCI-H1623 |  | 0.46 | 0.441 | 0.425 | 0.489 |  |  |  |  |  | 0.466 | 0.431 | 0.447 | 0.524 |  |  |  |  |  |
| NCI-H1648 | 0.225 | 0.249 | 0.298 | 0.244 | 0.209 |  |  |  |  | 0.641 | 0.463 | 0.685 | 0.396 | 0.376 | 0.638 | 0.797 |  | 0.611 | 0.802 |
| NCI-H1650 | 0.318 | 0.899 | 0.374 | 0.803 | 0.948 |  |  |  |  | 0.524 | 0.563 | 0.408 | 0.419 | 0.384 |  |  |  |  |  |
| NCI-H1703 |  |  |  |  |  | 0.304 | 0.376 | 0.215 | 0.334 |  |  |  |  |  |  |  |  |  | 0.136 |
| NCI-H1792 |  | 0.749 | 0.618 | 0.737 | 0.753 | 0.668 | 0.66 | 0.637 | 0.479 |  |  |  |  |  |  | 0.723 | 0.434 | 0.34 | 0.485 |
| NCI-H2009 | 0.423 | 0.617 | 0.321 | 0.249 | 0.251 | 1.21 | 1.22 | 1.24 | 1.35 | 0.703 | 0.759 | 0.672 | 0.649 | 0.62 |  |  |  |  |  |
| NCI-H2023 | 0.325 | 0.455 | 0.385 | 0.355 | 0.395 | 0.55 | 0.606 | 0.483 | 0.561 | 0.376 | 0.382 | 0.35 | 0.321 | 0.356 |  |  |  |  |  |
| NCI-H2228 |  | 0.668 | 0.554 | 0.52 | 0.607 | 0.826 | 0.64 | 0.753 | 0.856 |  | 0.246 | 0.248 | 0.236 | 0.244 |  |  |  |  |  |
| NCI-H2342 | 0.532 | 0.548 | 0.504 | 0.715 | 0.737 |  |  |  |  | 0.44 | 0.484 | 0.452 | 0.52 | 0.586 | 0.364 | 0.486 | 0.417 | 0.481 | 0.55 |
| SK-LU-1 |  | 0.366 | 0.217 | 0.285 | 0.227 | 1.08 | 0.972 | 1.04 | 1.34 |  | 0.365 | 0.255 | 0.311 | 0.332 |  |  |  |  |  |
| SK-MES-1 | 0.254 | 0.663 | 0.552 | 0.495 | 0.23 | 0.739 | 0.822 | 0.853 | 0.918 | 0.863 | 0.874 | 0.861 | 0.811 | 0.565 |  |  |  |  |  |
| SW 1573 | 0.463 | 0.61 | 0.525 | 0.623 | 0.548 | 0.789 | 0.64 | 0.759 | 0.652 | 0.284 | 0.233 | 0.191 | 0.19 | 0.241 |  |  |  |  |  |
| UMC-11 | 0.439 | 0.504 | 0.481 | 0.475 | 0.49 | 0.954 | 0.973 | 0.955 | 1.29 | 0.189 | 0.202 | 0.19 | 0.197 | 0.231 |  |  |  |  |  |
